How the values were obtained:
Assay in all cases: cells
Set-up in all cases: species or system Ba/F3; CellTiter-Glo anti-proliferation of Ba/F3 cells transformed with ETV6-NTRK fusions
Settings in all cases: Mus musculus, BaF3, 72 h; read-out: AZD4547 GI50
TRKA G595R = tested on: T1, TRKA G595R
T1 construct: ETV6 (1-336)-NTRK1 kinase domain (434-790) fusion expressed in Ba/F3
Description: (§1) To obtain the GI50 value of a substance, cell viability was measured using MTT (G4000, Promega, USA) for KM12(Luc) cell and Cell titer glo (G7572, Promega, USA) for other cell lines. For adherent cells, cells were seeded at 5,000 cells/well in a 96-well plate and treated with a substance one day after cell seeding. For suspension cells, 10,000 cells/well were seeded and the substance was treated after 4 h stabilization of cells. The substance was treated at 10 points of 1:3 serial dilution (0–100 µmol/L) for 72 h. For MTT assay, 15 µL dye solution was added to each well and incubated 4 h at 37°C. 100 µL of solubilization solution was added and followed 1 hr incubation. Absorbance at 570 nm of each well was recorded using EnVision microplate reader (Perkin Elmer). For Cell titer glo assay, Cell titer glo reagent was treated in each well and measured the luminescence by EnVision microplate reader (Perkin Elmer). Viable cells in each well were normalized by using 0.5% DMSO-treated wells (100%). The inhibitor dose−response curve was fitted and GI50 values were calculated using Prism 7.0 software (GraphPad). All assays were performed in duplicate and the standard deviation (SD) was determined from two independent experiments. To investigate the inhibitory activity of AZD4547 against clinically relevant TRK mutants which have resistance to the known TRK inhibitors ([8], [44]), we established Ba/F3 cell lines harboring the ETV6-NTRKs fusion genes (NTRK1, NTRK1G595R, NTRK1G667A, NTRK1G667C, NTRK1G667S and NTRK2) ( Supplementary Figure 2 ). The mutation status of each established cell line was confirmed by sequencing of its cDNA ( Supplementary Figure 2 ). The anti-proliferation activity of AZD4547 was then measured in each cell line ( Figure 2A and Table S2 ). […] However, AZD4547 has no inhibitory activity against Ba/F3 harboring clinically relevant TRKs mutants including TRKA G595R, TRKA G667S, TRKA G667C and TRKA G667A. We next evaluated if AZD4547 is capable of suppressing the phosphorylation of TRKA/B in Ba/F3 cell lines ( Figure 2B ). […] Also, phosphorylation of TRKA/B is almost completely abolished using 1 µM of AZD4547. […] (A) Summary of GI50s of AZD4547 against Ba/F3: TRKA mutants or TRKB. Cell viability after 72 h exposure to the indicated inhibitors, determined by using a cell titer glo assay in duplicate mode. Data was plotted as mean GI50 ± SD of two independent experiments. (B) AZD4547 inhibits phosphorylation of TRKA/B and PLC-gamma in Ba/F3 harboring TRKA and TRKB, respectively. […] Data are representative of three independent experiments.

TRKB = tested on: T2, TRKB
T2 construct: ETV6 (1-336)-NTRK2 kinase domain (455-822) fusion expressed in Ba/F3
Description: as §1

TRKA G667S = tested on: T3, TRKA G667S
T3 construct: ETV6 (1-336)-NTRK1 kinase domain (434-790) fusion expressed in Ba/F3
Description: as §1

TRKA = tested on: T4, TRKA
T4 construct: ETV6 (1-336)-NTRK1 kinase domain (434-790) fusion expressed in Ba/F3
Description: as §1

TRKA G667C = tested on: T5, TRKA G667C
T5 construct: ETV6 (1-336)-NTRK1 kinase domain (434-790) fusion expressed in Ba/F3
Description: as §1

Compound `COc1cc(CCc2cc(NC(=O)c3ccc(N4C[C@@H](C)N[C@@H](C)C4)cc3)n[nH]2)cc(OC)c1` [AZD4547] has a GI50 (TRKA G595R) greater than 2000 nM, a GI50 (TRKB) of 104 ± 6.1 nM and a GI50 (TRKA G667S) greater than 2000 nM. It also gave a GI50 (TRKA) of 66 ± 11.5 nM and a GI50 (TRKA G667C) greater than 2000 nM.

— PMC8591201, “Anti-Tumor Activity of AZD4547 Against NTRK1 Fusion Positive Cancer Cells Through Inhibition of NTRKs” (Frontiers in Oncology, 2021)
